Values quoted from earlier work, collected in publication PMC6207715, “Determination of extended substrate specificity of the MALT1 as a strategy for the design of potent substrates and activity-based probes” (Scientific Reports, 2018).
pIC50: −log10 of the molar value.

Experiments:
Conditions in all cases: cited from earlier work
caspase -8 = test system: caspase -8
Text: (§1) Z-VRPR-FMK, which was originally designed as a plant metacaspase inhibitor[3], is the most frequently used MALT1 inhibitor and binds covalently to the MALT1 active site. Mepazine is another inhibitor of MALT1, but functions in a noncovalent and reversible manner, limiting its usefulness in studying the enzyme. […] Hachmann et al. described the first tetrapeptidic MALT1-activity-based probe, which was characterized by medium potency (kobs/I = 9, 300 M^−1s^−1)[2 ...

caspase -3 = test system: caspase -3
Text: as §1

caspase -9 = test system: caspase -9
Text: as §1

MALT1 = biological target: T1, MALT1 (Homo sapiens, UniProt Q9UDY8)
T1 sequence (Q9UDY8 1-824): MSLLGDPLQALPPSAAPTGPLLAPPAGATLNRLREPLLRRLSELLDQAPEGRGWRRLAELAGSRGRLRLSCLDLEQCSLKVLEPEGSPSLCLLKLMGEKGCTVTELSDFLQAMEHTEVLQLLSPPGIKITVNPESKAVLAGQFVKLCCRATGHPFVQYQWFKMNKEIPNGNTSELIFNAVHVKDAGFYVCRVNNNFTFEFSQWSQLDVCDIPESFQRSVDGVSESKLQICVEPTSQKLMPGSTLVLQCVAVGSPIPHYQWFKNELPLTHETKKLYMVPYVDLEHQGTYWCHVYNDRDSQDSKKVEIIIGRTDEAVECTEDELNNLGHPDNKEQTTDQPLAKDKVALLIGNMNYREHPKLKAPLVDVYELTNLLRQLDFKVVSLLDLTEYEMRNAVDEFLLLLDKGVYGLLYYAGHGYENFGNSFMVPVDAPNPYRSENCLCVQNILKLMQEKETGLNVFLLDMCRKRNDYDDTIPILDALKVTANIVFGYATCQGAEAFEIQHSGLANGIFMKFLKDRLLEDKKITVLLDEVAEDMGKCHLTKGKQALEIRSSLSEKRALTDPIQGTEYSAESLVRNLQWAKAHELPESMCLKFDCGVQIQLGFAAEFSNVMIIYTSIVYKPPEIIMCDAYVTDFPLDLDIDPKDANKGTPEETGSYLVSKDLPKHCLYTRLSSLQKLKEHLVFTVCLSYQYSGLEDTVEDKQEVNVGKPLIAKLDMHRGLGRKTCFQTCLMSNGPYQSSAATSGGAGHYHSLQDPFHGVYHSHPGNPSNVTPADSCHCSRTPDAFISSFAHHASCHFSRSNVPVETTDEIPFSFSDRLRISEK
Text: as §1

COCCOc1nc(-c2ccc(Cl)c(Cl)c2)n(-c2ccc(NC(=O)CCl)cc2)n1 [MI-2]
activity toward caspase -8 (caspase -8): exhibits activity | activity toward caspase -3 (caspase -3): exhibits activity | activity toward caspase -9 (caspase -9): exhibits activity | pIC50 (MALT1): 5.23
